Laboratory results from paper PMC8305076, “Comprehensive Evaluation of Biological Effects of Pentathiepins on Various Human Cancer Cell Lines and Insights into Their Mode of Action” (International Journal of Molecular Sciences, 2021).

Experiments:
Format in all cases: cell-based, human
PATU-8902 = assay: DCFDA flow cytometric ROS assay, acute; settings: 25 µM, 15 min
Procedure: (§1) According to the hypothesized mechanism of action (see Figure 3), pentathiepins can create oxidative stress via generation of reactive sulfur precursors. We have previously reported that a representative pentathiepin can increase the intracellular levels of ROS in two cancer cell lines. This effect was thus further evaluated with the new compounds in seven cell lines (Figure 8). The cells were incubated for 15 min with 25.0 µM pentathiepin and subsequently analyzed by using the intracellular ROS sensor 2′,7′-dichlorodihydrofluorescein diacetate (DCFDA) by flow cytometry.
(§2) In order to quantify intracellular ROS, we performed a flow cytometric assay based on the ROS-sensor 2′,7′-dichlorofluorescein diacetate (DCFDA). For acute effects of pentathiepins on intracellular ROS levels, the cells were stained with DCFDA first and subsequently incubated with 25 µM of compound for 10 min. […] Per condition, 250,000 cells were seeded in 2 mL of medium per well of a 6-well plate and allowed to adhere overnight. For measurement of acute ROS, the cells were stained with 1 mL of a 20 µM DCFDA-PBS solution for 30 min under standard incubation conditions. Afterwards, the solution was discarded, and the monolayer washed twice with 1 mL of PBS before 3 mL of medium containing 25 µM of pentathiepin was added for 10 min at 37 °C. After removing the solution and washing again with PBS, the cells were detached by using 0.5 mL of a diluted trypsin/EDTA-PBS solution (25%) and harvested with 1 mL of culture medium by carefully rinsing the wells. The cell suspension was transferred to 1.5 mL tubes, centrifuged for 5 min at 500× g, and washed with 1 mL of PBS. After removing the supernatant, each pellet was resuspended in 0.5 mL of PBS for measurement via the MACSquant Analyzer 10 at λEx/Em = 488/530 nm. Relative ROS levels resulting from treatment with pentathiepin were calculated by relating the fluorescence intensity of treated samples to the negative control. For the experiments covering periods of 24 and 48 h, the cells were incubated with the compounds first and stained with DCFDA afterwards. To assess the influence of additional GSH, we included 3 or 30 µM GSH to the medium containing 25 µM of pentathiepin, and the protocol was followed as described.

DanG = assay: DCFDA flow cytometric ROS assay, acute; settings: 25 µM, 15 min
Procedure: as §1, §2

PARP1 in A2780 = assay: Western blot of cleaved PARP1; settings: IC90, 24 h
Procedure: (§3) In addition to general flow cytometric and microscopic analyses, Western blotting was performed to detect the apoptosis-relevant protein PARP1 (poly(ADP-ribose) polymerase 1) and its cleavage fragment (Figure 17 and Figures S29–S34). Full-length PARP1 (116 kDa) is involved in DNA repair, and a cleavage by caspases (fragment sizes 24 and 89 kDa) caused by caspase-3 and -7 is a hallmark of late apoptosis.
(§4) All detected specific bands were normalized to the total protein load per lane by the TGX stain-free gel system from Bio-Rad.
(§5) All Western blot analyses were performed with reagents, material, and devices purchased from Bio-Rad (Feldkirchen, Germany) if not stated otherwise. To obtain protein lysates, we seeded cells and treated them as described for the other methods. […] Cells were harvested by trypsinization and centrifugation for 5 min at 500× g. After a washing step with PBS, the cell pellet was resuspended in lysis buffer (Tris 50 mM (pH 7.4), 100 mM NaCl, 100 mM NaF, 5 mM EDTA, 0.2 mM Na3VO4, 0.1% Triton-X, and 1% protease inhibitor cocktail added immediately before use). Lysis was supported by incubating the samples for 10 min in an ultrasonic bath before centrifuging for 10 min at 18,000 × g and 4 °C. Protein quantification was performed via the Bradford method using ROTI®nanoquant reagent (Carl Roth GmbH, Karlsruhe, Germany) and bovine serum albumin as calibration standard. For electrophoretic separation, 15–40 µg of protein was loaded per well of a polyacrylamide gel (Mini- or Midi-Protean® TGX stain-free gel, Bio-Rad, Feldkirchen, Germany), and subsequent blotting was performed with Trans-Blot®Turbo™TransferPack Mini or Midi PVDF membranes from Bio-Rad (Feldkirchen, Germany). The membranes were blocked with a 10% non-fat milk powder solution in Tris-buffered saline (TBS; 2.42 g/L Tris, 8.48 g/L NaCl in water) plus 0.5% Tween-20 (TBST) for 1 h at RT. Incubation with primary antibodies took place over night at 4 °C in a 1:1000 dilution in TBST containing BSA (1%). The secondary antibodies conjugated to horse-radish peroxidase were diluted 1:10,000 in TBST and 1% BSA, and incubated for 4 h at RT. A detection step followed, applying Clarity™Western ECL substrate with subsequent imaging via the INTAS Advanced Fluorescence Imager. Between all incubation steps, the blots were washed three times for 10 min with TBST. The bands were quantified with the ImageLab software and normalized using the total protein quantification of the TGX stain-free gel system from Bio-Rad.

PARP1 in Siso = assay: Western blot of cleaved PARP1; settings: IC90, 24 h
Procedure: as §3, §4, §5

[1] = tested on: caspase-3 and -7 in HAP-1; assay: luminescent caspase activity assay; settings: pentathiepins IC90, doxorubicin 0.5 µM, 24 h
Description: To further corroborate this mode of cell death, we performed a luminescent caspase assay by measuring caspase-3 (cas-3) and caspase-7 (cas-7) activities (Figure 16). Both are executioner caspases that are present as zymogens (35 kDa) and become active after being cleaved (fragment sizes 17 and 19 kDa) by initiator caspases. Activated cas-3 and -7 in turn have several other substrates, including PARP1. In this assay, a precursor with a caspase-specific target sequence was converted into its luminescent form by active caspase-3 or -7, thereby emitting light that can be quantified.
To study the activation of the effector caspases -3 and -7, we performed a luminescence-based assay according to the manufacturer’s instructions (Caspase-Glo, Promega, Walldorf, Germany). Briefly, 5000 cells were seeded in 0.1 mL per well of a 96-well plate and allowed to adhere overnight. […] Afterwards, the standard protocol was followed, including a 30 min incubation time before measurement of luminescent signals by using the Spectramax i3x (Molecular Devices, Sunnyvale, CA, USA). After subtraction of the background luminescence the positive control and treatment conditions were related to the negative control.

| Compound | caspase-3 and -7 activity vs solvent control [1] | intracellular ROS levels (PATU-8902) | intracellular ROS levels (DanG) | fraction of 89 kDa PARP1 (PARP1 in A2780) | fraction of 89 kDa PARP1 (PARP1 in Siso) |
| --- | --- | --- | --- | --- | --- |
| CCOc1c2c(c3ccc(C(=O)N4CCN(C(=O)c5ccc(F)cc5)CC4)cn13)SSSSS2 [Compound 5, (6-Ethoxy-[1,2,3,4,5]pentathiepino[6,7-a]indolizin-9-yl)(4-(4-fluorobenzoyl)piperazinyl)methanone] | – | high levels of intracellular ROS were detected | high levels of intracellular ROS were detected | very small and only confirmed after treatment with pentathiepins 3 or 5 | very small and only confirmed after treatment with pentathiepins 3 or 5 |
| CCOc1c2c(c3ccc(C(=O)N4CCCCC4)cn13)SSSSS2 [Compound 2, (6-Ethoxy-[1,2,3,4,5]pentathiepino[6,7-a]indolizin-9-yl)(piperidinyl)methanone] | statistically significant results | high levels of intracellular ROS were detected | high levels of intracellular ROS were detected | – | – |
| CCOc1c2c(c3ccc(C(=O)N4CCOCC4)cn13)SSSSS2 [Compound 3, (6-Ethoxy-[1,2,3,4,5]pentathiepino[6,7-a]indolizin-9-yl)(morpholino)methanone] | – | high levels of intracellular ROS were detected | high levels of intracellular ROS were detected | very small and only confirmed after treatment with pentathiepins 3 or 5 | very small and only confirmed after treatment with pentathiepins 3 or 5 |

More lines, main results first:

| caspase-3 and -7 activity vs solvent control [1] | Compound | intracellular ROS levels (PATU-8902) | intracellular ROS levels (DanG) | fraction of 89 kDa PARP1 (PARP1 in A2780) | fraction of 89 kDa PARP1 (PARP1 in Siso) |
| --- | --- | --- | --- | --- | --- |
| statistically significant results | CCOc1c2c(c3ccc(C(=O)N(CC)CC)cn13)SSSSS2 [Compound 4, 6-Ethoxy-N,N’-diethyl-[1,2,3,4,5]pentathiepino[6,7-a]indolizine-9-carboxamide] | high levels of intracellular ROS were detected | high levels of intracellular ROS were detected | – | – |
| statistically significant results | CCOc1c2c(c3ccc(C(=O)N4CCN(S(=O)(=O)c5ccc(C)cc5)CC4)cn13)SSSSS2 [Compound 6, (6-Ethoxy-[1,2,3,4,5]pentathiepino[6,7-a]indolizin-9-yl)(4-tosylpiperazinyl)methanone] | – | – | – | – |
